From US20210348177A1, “GENERATION OF HERITABLY GENE-EDITED PLANTS WITHOUT TISSUE CULTURE” (priority 2018, published 2021)
Entries after “also recorded” stand apart in the source; their conditions may differ.

Legend:
Arabidopsis thaliana = settings: no DAAO; cited from earlier work
plants that express DAAO = settings: at the level of 30 mM; cited from earlier work
HSVtk plants = assay: Toxicity of GAN: shoot regeneration of decapitated HSVtk plants; assay type: in vivo, tomato; settings: for Regeneration of HSVtk plants: one month after decapitation
Experimental: (§1) Roughly one week later, seedlings were decapitated at the injection site using a sharp razor blade. Immediately after decapitation, parafilm was stretched over the decapitation site, to prevent the stem from drying out, and aluminum foil was added to cover the parafilm, shading the cut site to promote callus formation. Plants were returned to growth chamber and monitored for axillary shoot formation and callus regeneration. New shoots forming from the cotyledon axillary buds were removed using forceps as soon as they were observed.
(§2) After 1-2 weeks, the cut site of the stem began forming a white callus, and selection gel was applied. Carbomer 940 powder was added to a water solution containing selection agents to make 0.5% w/v carbomer gel. The pH was adjusted with KOH to 7.5 to thicken the gel. The gel containing the selecting agents was added to the decapitated plants by putting a droplet of the gel to the wound site of the shoot using spatula, about 40-50 uL in volume. Parafilm and aluminum foil was placed back on the cut site, and plants were returned to growth chamber. […] Parafilm and foil were removed from decapitation sites, and shoots were allowed to grow.
(§3) Solutions of D-amino acids were made from D-valine powder (MP Biomedicals 0210322625) and D/L-isoleucine powder (MP Biomedicals 0210208225). Zirgan (ganciclovir ophthalmic gel) 0.15%, an antiviral eye gel was used in making GAN gel, as well as in direct application on decapitated plants.
(§4) HSVtk (no Cas9) plants were germinated and grown in soil. They were decapitated about three weeks after they were sown. The selecting agent, GAN (Ganciclovir), was applied to the decapitated plants after the decapitation. We made a series of GAN gels with different GAN concentrations: 0.1 mM, 1 mM, and 4.5 mM. The 0.1 mM and 1 mM GAN gel was made by diluting the Zirgan ganciclovir ophthalmic gel (4.5 mM GAN) into 0.2% carbomer gel. The two gels were mixed in a 4 mL plastic vial by shaking. Around […] GAN gel was applied to each plant each time, and the gel application was renewed every three to five days.
(§5) We tested whether the carbomer gel itself would have an influence on plant regeneration. We included a group of wildtype plants that received no treatment, and a group of wildtype plants that received carbomer gel containing no GAN. All plants in both groups, except one plant in the control set, regenerated new shoots. Therefore, we eliminated the possibility of regeneration interference from the gel.
(§6) One month after the decapitation and application of GAN selection, the regeneration of shoots was evaluated. In the control plants with 0 mM GAN treatment, including HSVtk and wildtype plants, almost all the plants regenerated new shoots. […] Thus, we concluded that GAN was toxic to both HSVtk plants and wildtype plants at a concentration higher than 0.1 mM. However, as the GAN concentration increased, HSVtk plants became more sensitive to it than wildtype plants. At a concentration of 4.5 mM, GAN could prevent regeneration of the HSVtk plants, while still allowing some wildtype plants to regenerate. Therefore we decided to use a 2 mM dose as the effective selecting agent in our future experiments.

transgene-free plants = assay: Toxicity of GAN: shoot regeneration of decapitated transgene-free (wildtype) plants; assay type: in vivo, tomato; settings: for Regeneration of transgene-free plants (control): one month after decapitation
Experimental: as §1, §2, §3, §4, §5, §6

HSVtk transgene = assay: CRISPR editing after agro-injection, decapitation and ganciclovir selection: HSVtk; assay type: in vivo, tomato; settings: ganciclovir counter-selection of HSVtk+Cas9 lines, regenerated shoots
Experimental: In example two, we decapitated the seedlings at the first internode so that cells that were genome edited could form a callus, regenerate new meristems and stems. The Cas9 expressing mother plants were injected with the viral replicon vector and decapitated at the epicotyl a week later. The decapitation site was covered with parafilm and an aluminum foil cap for 4 weeks. Any axillary buds in the cotyledon node were removed. When a solid callus mass was visible (approx. four weeks after decapitation) at the wound site, the caps were removed and ganciclovir was applied (2 mM concentration of the compound in a carbomer gel). Every meristem that developed into a healthy shoot was detached and propagated to fruiting. Mutation level and type were analyzed by PCR and sequencing of amplicons flanking the target genomic sites. Regenerated stems were evaluated for mutation in the marker and POTATO LEAF (C) sequences and the expected change in leaf shape typical of a C knockout. We evaluated the correlation between the Cas9 modified HSVtk and C.
Agrobacterium glycerol stocks transformed with pTRV or pTAV vectors were streaked onto LB plates containing appropriate antibiotics based on plasmids and agro strains. […] After 24 hours, cultures were measured for OD600 using spectrophotometer. […] The next day, OD600 was measured for each culture. […]

[1] = system: transgenic Arabidopsis root explants / leaf explants; settings: 0.1 mM GAN; cited from earlier work
transgene-free explants = settings: 0.1 mM GAN; cited from earlier work

## C[C@@H](N)C(=O)O [D-alanine]
Arabidopsis thaliana
  influence on plant growth: inhibit plant growth even at a low concentration

## CC[C@@H](C)[C@@H](N)C(=O)O [D-isoleucine]
Arabidopsis thaliana
  influence on plant growth: very little influence on plant growth
Plants that express DAAO
  effect on plants that express DAAO: deleterious effects

## N[C@H](CO)C(=O)O [D-serine]
Arabidopsis thaliana
  influence on plant growth: inhibit plant growth even at a low concentration

## Nc1nc(O)c2ncn(COC(CO)CO)c2n1 [GAN, ganciclovir]
HSVtk plants; 0.1 mM GAN
  Regeneration of HSVtk plants (plants regenerated out of treated): (16 out of 18)
HSVtk plants; 0.1 mM GAN gel on decapitated plants
  Regeneration of HSVtk plants: 89%
HSVtk plants; 1 mM GAN
  Regeneration of HSVtk plants (plants regenerated out of treated): (4 out of 16)
HSVtk plants; 1 mM GAN gel on decapitated plants
  Regeneration of HSVtk plants: 25%
HSVtk plants; 4.5 mM GAN
  Regeneration of HSVtk plants (plants regenerated out of treated): none of the HSVtk plants regenerated; also recorded: (0 out of 10)
HSVtk plants; 4.5 mM GAN gel on decapitated plants
  Regeneration of HSVtk plants: 0%
HSVtk plants; decapitated plants, GAN gel, HSVtk and wildtype plants
  Concentration at which GAN was toxic to both HSVtk plants and wildtype plants: higher than 0.1 mM
transgene-free plants; 0.1 mM GAN
  Regeneration of transgene-free plants (plants regenerated out of treated): (14 out of 15)
transgene-free plants; 0.1 mM GAN gel
  Regeneration of transgene-free plants (control): 93%
transgene-free plants; 1 mM GAN
  Regeneration of transgene-free plants (plants regenerated out of treated): (8 out of 15)
transgene-free plants; 1 mM GAN gel
  Regeneration of transgene-free plants (control): 53%
transgene-free plants; 4.5 mM GAN
  Regeneration of transgene-free plants (plants regenerated out of treated): 6 out of 23 and (6 out of 23)
transgene-free plants; 4.5 mM GAN gel
  Regeneration of transgene-free plants (control): 26%
HSVtk transgene
  escapes at current ganciclovir concentrations: ~60%
[1]
  shoot regeneration on transgenic root explants or callus formation on leaf explants: significantly reduce
transgene-free explants
  regeneration of transgene-free explants: does not affect

## CC(C)[C@@H](N)C(=O)O [D-valine]
Arabidopsis thaliana
  influence on plant growth: very little influence on plant growth
Plants that express DAAO
  effect on plants that express DAAO: deleterious effects
